# According to US11485728B2, “Small molecules for the treatment of autoimmune diseases and cancer” (Athos Therapeutics, Inc., priority 2020, dated 2022):
# What was measured:
# [1] = system: C57BL/6 mice with TNBS colitis; assay: TNBS colitis in C57BL/6 mice; type: in vivo; parameters: TNBS Efficacy / Clinical Score / Histological Score / Colon Length: key to the marks not given beside the values
# Procedure: C57BL/6 mice (20-22 grams) were fed ad lib and assigned to 4 different groups (n=8/group). After a 72 hr acclimation period the test group groups received 25 mg/kg of test compound PO (gavage) in vehicle daily. A control group received vehicle alone. After 24 hrs, mice were weighed and TNBS was injected intra-colonically using 5 cm of polyethylene (¼ inch) tubing. Mice were then treated with the test compounds and weighed daily for 4 days. Mice were sacrificed on day 4 and clinical score was assessed. Intestinal tissue for and blood were also collected. Tissues were either flash frozen and kept in −80° C. for RNA and protein isolation or placed in 10% formalin solution for future histological analysis. Blood was spun at 5K rpm for 5 min and serum was collected and kept at −20° C. for multiplex cytokine analysis.
# colon cell line HCT = assay: Gene expression (RNA-Seq) of colon cancer cells treated with Compound 156; type: cell-based, Human
# Procedure: Methods: RNA was extracted from HTC colon cancer cells that has been treated or not with Compound 156 and was sent to the Technology Center for Genomics & Bioinformatics at UCLA for sequencing.
# Library construction and sequencing methods: Libraries for RNA-Seq were prepared with TruSeq Stranded mRNA Library Prep Kit. The workflow consists of mRNA enrichment and fragmentation. Cleaved RNA fragments are copied into first strand cDNA using reverse transcriptase and random primers. Strand specificity is achieved by replacing dTTP with dUTP and followed by second strand cDNA synthesis using DNA Polymerase I and RNase H. cDNA generation is followed by A-tailing, adaptor ligation and PCR amplification. Different adaptors were used for multiplexing samples in one lane. Sequencing was performed on Illumina NovaSeq 6000 for PE 2×50 run. Data quality check was done on Illumina SAV. Demultiplexing was performed with Illumina Bcl2fastq v2.19.1.403 software.
# Bioinformatics methods: The reads were mapped by STAR 2.27a to Human GRCh38 genome and read counts per gene were quantified using Ensembl Human GRCh38.98 GTF file. Gene differential expression analysis and downstream gene enrichment analysis was performed at Athos Therapeutics. The DESeq2 R package was used for differential expression analysis. DESeq2 FDR cutoff: 0.05, DESeq2 Log 2FC cutoff: 1 (FC cutoff: 2). Gene enrichment analysis was performed using the Enrichr (https://maayanlab.cloud/Enrichr/enrich) and gprofiler (https://biit.cs.ut.ee/gprofiler/gost) platforms.
# in vitro = settings: PAMPA, 5 hours at RT
# [2] = cell cycle pathway, colon cell line HCT
# [3] = p53 pathway, colon cell line HCT
compound,measurement,setting,value
"COc1cc2c(NC3CCOCC3)nc(N3CCC(F)(F)CC3)nc2cc1OCCCN1CCCC1 [Compound 2, 2-(4,4-difluoropiperidin-1-yl)-6-methoxy-7-(3-(pyrrolidin-1-yl)propoxy)-N-(tetrahydro-2H-pyran-4-yl)quinazolin-4-amine]",colitis associated damage in the intestine (in words),[1]; 25 mg/kg PO daily,strong inhibitor of colitis associated damage in the intestine
same,Clinical Score,"[1]; 25 mg/kg PO daily, day 4",++
same,Colon Length,"[1]; 25 mg/kg PO daily, day 4",++
same,Histological Score,"[1]; 25 mg/kg PO daily, day 4",++
same,TNBS Efficacy,"[1]; 25 mg/kg PO daily, day 4",++
same,histological scores (in words),[1]; vs vehicle treated controls,positive outcomes
"COc1cc2c(NC3CCN(C(C)C)CC3)nc(-n3ccnc3)nc2cc1OCCCN1CCCC1 [Compound 156, 2-(1H-imidazol-1-yl)-N-(1-isopropylpiperidin-4-yl)-6-methoxy-7-(3-(pyrrolidin-1-yl)propoxy)quinazolin-4-amine]",Log2 Fold Change BUB1,colon cell line HCT; [2],−5.157
same,Log2 Fold Change BUB1B,colon cell line HCT; [2],−4.7094
same,Log2 Fold Change CCNA2,colon cell line HCT; [2],−5.163
same,Log2 Fold Change CCNB1,colon cell line HCT; [2],−4.231
same,Log2 Fold Change CCNB2,colon cell line HCT; [2],−5.041
same,Log2 Fold Change CCNE2,colon cell line HCT; [2],−5.409
same,Log2 Fold Change CDC6,colon cell line HCT; [2],−4.121
same,Log2 Fold Change CDC7,colon cell line HCT; [2],−2.499
same,Log2 Fold Change CDC20,colon cell line HCT; [2],−4.826
same,Log2 Fold Change CDC25A,colon cell line HCT; [2],−2.858
same,Log2 Fold Change CDC25C,colon cell line HCT; [2],−5.142
same,Log2 Fold Change CDC45,colon cell line HCT; [2],−4.679
same,Log2 Fold Change CDK1,colon cell line HCT; [2],−4.779
same,Log2 Fold Change CDKN2C,colon cell line HCT; [2],−5.14
same,Log2 Fold Change CHEK1,colon cell line HCT; [2],−1.994
same,Log2 Fold Change CHEK2,colon cell line HCT; [2],−2.186
same,Log2 Fold Change DBF4,colon cell line HCT; [2],−2.536
same,Log2 Fold Change E2F1,colon cell line HCT; [2],−4.309
same,Log2 Fold Change E2F2,colon cell line HCT; [2],−5.296
same,Log2 Fold Change ESPL1,colon cell line HCT; [2],−4.821
same,Log2 Fold Change MAD2L1,colon cell line HCT; [2],−4.388
same,Log2 Fold Change MCM2,colon cell line HCT; [2],−3.686
same,Log2 Fold Change MCM3,colon cell line HCT; [2],−2.599
same,Log2 Fold Change MCM4,colon cell line HCT; [2],−3.347
same,Log2 Fold Change MCM5,colon cell line HCT; [2],−4.183
same,Log2 Fold Change MCM6,colon cell line HCT; [2],−3.834
same,Log2 Fold Change MCM7,colon cell line HCT; [2],−3.817
same,Log2 Fold Change ORC1,colon cell line HCT; [2],−4.987
same,Log2 Fold Change ORC6,colon cell line HCT; [2],−3.9103
same,Log2 Fold Change PKMYT1,colon cell line HCT; [2],−3.971
same,Log2 Fold Change PLK1,colon cell line HCT; [2],−4.8821
same,Log2 Fold Change PTTG1,colon cell line HCT; [2],−2.317
same,Log2 Fold Change RBL1,colon cell line HCT; [2],−3.043
same,Log2 Fold Change SKP2,colon cell line HCT; [2],−2.823
same,Log2 Fold Change SMC1A,colon cell line HCT; [2],−1.934
same,Log2 Fold Change TTK,colon cell line HCT; [2],−4.824
same,Log2 Fold Change WEE1,colon cell line HCT; [2],−2.394
same,number of genes activated by p53 that were upregulated,colon cell line HCT; data not shown,> 80 genes
same,number of genes regulated by E2F-1 and E2F-4 that were downregulated,colon cell line HCT; data not shown,> 500 genes
same,Log2 Fold Change CCND1,colon cell line HCT; [3],1.792
same,Log2 Fold Change CD82,colon cell line HCT; [3],1.878
same,Log2 Fold Change CDKN1A,colon cell line HCT; [3],3.19
same,Log2 Fold Change FAS,colon cell line HCT; [3],2.667
same,Log2 Fold Change GADD45A,colon cell line HCT; [3],1.969
same,Log2 Fold Change MDM2,colon cell line HCT; [3],3.166
same,Log2 Fold Change PMAIP1,colon cell line HCT; [3],3.102
same,Log2 Fold Change RRM2B,colon cell line HCT; [3],2.678
same,Log2 Fold Change SERPINB5,colon cell line HCT; [3],2.471
same,Log2 Fold Change SERPINE1,colon cell line HCT; [3],3.232
same,Log2 Fold Change SESN1,colon cell line HCT; [3],1.955
same,Log2 Fold Change SESN2,colon cell line HCT; [3],2.19
same,Log2 Fold Change THBS1,colon cell line HCT; [3],1.872
same,Log2 Fold Change TP53I3,colon cell line HCT; [3],3.87
same,Log2 Fold Change ZMAT3,colon cell line HCT; [3],3.367
same,genes related to cell cycle,colon cell line HCT; treated vs not treated,downregulated
same,p-53 related genes,colon cell line HCT; treated vs not treated,upregulated
"COc1cc2c(NC3CCN(C(C)C)CC3)nc(N3CCC(F)(F)CC3)nc2cc1OCCCN1CCCC1 [Compound 400, 2-(4,4-difluoropiperidin-1-yl)-N-(1-isopropylpiperidin-4-yl)-6-methoxy-7-(3-(pyrrolidin-1-yl)propoxy)quinazolin-4-amine, reference compound]",Papp,"in vitro; PAMPA permeability Classification, 20 μM donor",0.055 to 1.5 ×10⁻⁶ cm/s
same,Papp,"in vitro; Permeability, Pe, 20 μM donor in PBS/MeOH 90:10",0.178 ×10⁻⁶ cm/s
